Laboratory results reported in ChEMBL document CHEMBL1126494, “New potent angiotensin II receptor antagonists containing phenylthiophenes and phenylfurans in place of the biphenyl moiety” (Bioorg Med Chem Lett, 1993).

Experiment: Compound was tested for inhibition of Angiotensin II receptor in rabbit aorta binding assay

IC50 [nM] | SMILES
23 | CCc1nc2c(C)cc(C)nc2n1Cc1ccc(-c2ccoc2-c2nn[nH]n2)cc1
2.4 | CCc1nc2c(C)cc(C)nc2n1Cc1ccc(-c2cscc2-c2nn[nH]n2)cc1
1000 | CCc1nc2c(C)cc(C)nc2n1Cc1ccc(-c2ccccc2-c2nn[nH]n2)s1
2.3 | CCc1nc2c(C)cc(C)nc2n1Cc1ccc(-c2ccsc2-c2nn[nH]n2)cc1
